The source of these data is ChEMBL document CHEMBL5728780, “Cyclic substituted imidazo[4,5-c]quinoline derivatives” (2021).

A value given as a limit tells only on which side of the number the result lay.

The target of this experiment is Leucine-rich repeat serine/threonine-protein kinase 2 (Homo sapiens, UniProt Q5S007). As to the kind of experiment: LRRK2 Assay: LRRK2 kinase activity was measured using Lantha Screen technology from Invitrogen. GST-tagged truncated LRRK2 from Invitrogen (Cat #PV4874) was incubated with a fluorescein-labeled peptide substrate based upon ezrin/radixin/moesin (ERM), also known as LRRKtide (Invitrogen cat #PR8976A), in the presence of a dose response of compound. Upon completion, the assay was stopped and detected with a terbium labeled anti-phospho-ERM antibody (Invitrogen, cat #PR8975A). The assay was carried out under the following protocol: The compound dose response was prepared by diluting compound to a top concentration of 0.3 mM in 100% DMSO and serial diluted by half-log in DMSO to give an 11 point curve, 100× final assay concentration. Using Echo acoustic dispensing, 60 nL of compound was transferred to a low volume Corning 384-well assay plate. 3 μL of a working solution of substrate (200 nM LRRKtide, 2 mM ATP) prepared in assay buffer (50 mM HEPES, pH 7.5, 3 mM MgCl2, with 2 mM DTT and 0.01% Brij35 added fresh) was added to the 60 nL compound assay plate. The kinase reaction was started with 3 μL of a working solution of LRRK2 enzyme at a concentration of 4 μg/mL. The final reaction concentrations were 100 nM LRRKtide, 1 mM ATP, 2 μg/mL LRRK2 enzyme and a compound dose response with a top dose of 3 μM. […].
Leucine-rich repeat serine/threonine-protein kinase 2, sequence (Q5S007 whole entry, looked up, the tested form may be a part): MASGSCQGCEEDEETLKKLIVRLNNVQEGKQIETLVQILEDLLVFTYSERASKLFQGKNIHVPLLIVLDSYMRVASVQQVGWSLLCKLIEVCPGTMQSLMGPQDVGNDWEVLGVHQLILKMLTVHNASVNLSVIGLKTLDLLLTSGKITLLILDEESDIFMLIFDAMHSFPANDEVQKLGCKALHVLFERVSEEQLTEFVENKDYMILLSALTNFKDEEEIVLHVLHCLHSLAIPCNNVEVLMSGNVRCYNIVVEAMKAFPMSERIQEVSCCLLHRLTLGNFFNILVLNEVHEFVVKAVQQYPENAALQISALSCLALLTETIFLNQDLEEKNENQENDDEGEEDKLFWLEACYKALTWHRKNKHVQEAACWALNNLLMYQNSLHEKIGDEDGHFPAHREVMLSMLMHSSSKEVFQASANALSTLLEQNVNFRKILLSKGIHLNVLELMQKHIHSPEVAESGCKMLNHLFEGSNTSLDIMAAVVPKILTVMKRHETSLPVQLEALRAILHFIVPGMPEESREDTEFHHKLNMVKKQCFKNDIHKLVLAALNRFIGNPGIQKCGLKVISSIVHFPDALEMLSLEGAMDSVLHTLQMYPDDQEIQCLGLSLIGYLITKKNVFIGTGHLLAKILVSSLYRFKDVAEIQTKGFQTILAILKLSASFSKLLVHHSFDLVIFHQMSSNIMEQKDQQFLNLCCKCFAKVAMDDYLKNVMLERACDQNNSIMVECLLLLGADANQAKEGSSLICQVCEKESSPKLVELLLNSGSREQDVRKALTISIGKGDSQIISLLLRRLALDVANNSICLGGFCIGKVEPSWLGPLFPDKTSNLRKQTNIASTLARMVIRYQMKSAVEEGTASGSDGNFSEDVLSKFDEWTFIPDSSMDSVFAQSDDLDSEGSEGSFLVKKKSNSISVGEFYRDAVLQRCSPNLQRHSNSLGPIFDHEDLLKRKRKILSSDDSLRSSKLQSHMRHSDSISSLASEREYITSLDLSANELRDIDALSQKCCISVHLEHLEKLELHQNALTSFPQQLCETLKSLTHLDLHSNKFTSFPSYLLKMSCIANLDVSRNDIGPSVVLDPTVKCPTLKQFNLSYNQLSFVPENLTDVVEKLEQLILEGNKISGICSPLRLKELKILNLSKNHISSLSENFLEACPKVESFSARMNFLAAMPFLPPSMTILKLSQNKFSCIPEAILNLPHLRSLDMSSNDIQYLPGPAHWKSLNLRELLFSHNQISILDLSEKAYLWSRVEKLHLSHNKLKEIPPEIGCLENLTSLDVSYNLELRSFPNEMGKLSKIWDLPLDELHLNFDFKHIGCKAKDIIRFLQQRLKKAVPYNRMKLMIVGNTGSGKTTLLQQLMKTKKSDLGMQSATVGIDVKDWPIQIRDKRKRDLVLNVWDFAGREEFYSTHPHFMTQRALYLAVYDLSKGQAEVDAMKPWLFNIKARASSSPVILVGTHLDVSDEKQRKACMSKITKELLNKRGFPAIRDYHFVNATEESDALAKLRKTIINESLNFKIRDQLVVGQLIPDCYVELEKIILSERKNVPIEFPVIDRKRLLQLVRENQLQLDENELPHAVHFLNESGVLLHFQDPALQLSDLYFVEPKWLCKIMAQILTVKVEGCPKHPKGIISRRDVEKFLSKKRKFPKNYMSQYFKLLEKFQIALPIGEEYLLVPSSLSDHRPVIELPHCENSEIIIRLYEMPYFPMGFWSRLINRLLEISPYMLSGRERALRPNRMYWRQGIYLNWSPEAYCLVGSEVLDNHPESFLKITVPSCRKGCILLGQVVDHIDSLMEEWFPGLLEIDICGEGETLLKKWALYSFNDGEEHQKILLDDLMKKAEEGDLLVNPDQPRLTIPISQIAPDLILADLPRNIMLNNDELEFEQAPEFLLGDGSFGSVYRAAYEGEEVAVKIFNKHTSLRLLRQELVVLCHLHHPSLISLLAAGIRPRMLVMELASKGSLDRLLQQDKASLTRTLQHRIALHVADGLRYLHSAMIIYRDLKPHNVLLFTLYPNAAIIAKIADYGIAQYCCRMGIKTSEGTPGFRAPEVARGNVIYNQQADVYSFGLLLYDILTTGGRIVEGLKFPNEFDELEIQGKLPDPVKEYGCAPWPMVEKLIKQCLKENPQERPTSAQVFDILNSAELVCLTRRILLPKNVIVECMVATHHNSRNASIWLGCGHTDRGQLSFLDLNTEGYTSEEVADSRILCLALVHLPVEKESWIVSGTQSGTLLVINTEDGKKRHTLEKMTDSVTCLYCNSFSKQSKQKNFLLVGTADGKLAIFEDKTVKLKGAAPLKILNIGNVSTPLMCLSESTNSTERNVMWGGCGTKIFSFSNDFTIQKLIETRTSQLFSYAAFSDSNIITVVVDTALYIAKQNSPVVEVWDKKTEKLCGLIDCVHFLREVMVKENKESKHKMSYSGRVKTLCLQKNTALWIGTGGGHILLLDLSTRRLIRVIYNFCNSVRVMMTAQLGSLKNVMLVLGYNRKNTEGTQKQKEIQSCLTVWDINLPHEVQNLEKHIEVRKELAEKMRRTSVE

As to `CN1CC[C@@H](n2c(C3CCC(F)C3)nc3cnc4ccc(F)cc4c32)C1` (stereo partly specified), the IC50 was over 2.84 µM.

Broadly, the IC50 is the concentration needed to halve the response being measured.
